What was measured:
A549 cells [1] = assay: Subcellular distribution of Pt (mitochondria, lysosomes, nucleus, residual); details: A549, 10 μM, 4 h, ICP-MS
Excerpt: (§1) One of the main factors to determine the mechanism of cytotoxic activity of a metal-based drug is its ability to cross the cell membrane and to accumulate in cancer cells. Therefore, with the aim of correlating cellular accumulation, we investigated the cellular uptake of the platinum complexes in A549, NCI-H1299 cancer cells and L02 normal cell. […] Moreover, the amount of Pt in the different subcellular compartments of cancer cells was quantified to fetch a more detailed picture of Pt-based complexes intracellular localization (Figure 1C).
(§2) The cells were seeded in 6-well plates overnight and then incubated with 10 μM drugs at 37°C in standard culture conditions. After 4 h, the cells were washed with PBS buffer (pH 7.4) for three times, and harvested by trypsinization. […] The organelles were then isolated via differential centrifugation. All cellular compartments (mitochondria, lysosomes and nucleus) were isolated from A549 and NCI-H1299 cancer cells for direct comparative purposes. The supernatant phases discarded during the isolation of nuclei, lysosomes and mitochondria procedures were collected and formed the “residual” fraction. An aliquot of crude lysate after homogenization, nuclear, mitochondrial (pellet lysed via freeze and thaw cycles followed by 20 min incubation in ultrasonic bath), lysosomal and residual fraction was each used for protein quantification using the Bradford method. The harvested cells were concentrated and digested by nitric acid for the ICP measurement. The cell numbers were counted before the digested. For the measurement of Pt concentration in cellular DNA in A549, NCI-H1299 cancer cells, DNA was isolated by applying Genomic DNA Mini Preparation Kit (Beyotime, China), and Pt content in DNA was analyzed by ICP.

NCI-H1299 cells [2] = assay: as above; details: NCI-H1299, 10 μM, 4 h, ICP-MS
Excerpt: as §1, §2

A549 cells [3] = assay: Cell-cycle analysis (PI staining, flow cytometry); type: cell-based, human; details: A549, 10 μM
Experimental: (§3) With the untreated A549 and NCI-H1299 cells, the percentage of cells in the G1 phase was at 21.29%, 18.96% with 15.28%, 22.94% in the G2/M phase, respectively.
(§4) Cell cycle was analyzed by flow cytometry as described previously. Data were analyzed with FlowJo software (TreeStar, Inc.).

NCI-H1299 cells [4] = assay: Cell-cycle analysis (PI staining, flow cytometry); type: cell-based, human; details: NCI-H1299, 10 μM
Experimental: as §3, §4

p-Akt = assay: Western blot of PI3K/Akt/mTOR pathway; type: cell-based, human; details: A549, 10 μM, 24 h, relative to control
Excerpt: (§5) The mammalian target of rapamycin (mTOR) kinase is used to regulate autophagy as controlled though oxidative stress, hypoxia and growth receptors. The phosphatidylinosital-3 kinase (PI3K)/Akt signaling pathway activates mTOR through phosphorylating and inactivating the tuberous sclerosis complex (TSC)1–TSC2 complex. Inhibition of mTOR results in activation of autophagy. […] At the same time, levels of the p-Akt protein decreased to 0.95-, 1.02-, and 0.39-folds, respectively (Figure 7B). […] As a results, the administration of complex 3 decreased levels of proteins in PI3K/Akt/mTOR signaling pathways.
(§6) Lysates were centrifuged at 12,000 g for 0.5 h at 4°C. The concentrations of total proteins were measured using the BCA assay method with Varioskan spectrofluorometer and spectrophotometer (Thermo, Waltham, MA) at 562 nm. Protein (20–100 μg) prepared from the indicated cells was loaded per lane and electrophoresed in 8% or 10% sodium dodecyl sulfate polyacrylamide gel electrophoresis (SDS-PAGE), and then transferred onto polyvinylidene difluoride (PVDF) Immobilon-P membrane (Bio-Rad, USA) using a transblot apparatus (Bio-Rad, USA). The membranes were blocked with 5% (w/v) non-fat milk at 0.5 h at 37°C, followed by overnight incubation at 4°C with primary antibodies diluted in PBST. After washing with PBST, the membranes were incubated for 1 h with an IRDye´800 conjugated secondary antibody diluted 1:20000 in PBST, and the labeled proteins were detected with an Odyssey Scanning System (Li-COR., Lincoln, Nebraska, USA).

p-mTOR = assay: Western blot of PI3K/Akt/mTOR pathway; type: cell-based, human; details: A549, 10 μM, 24 h, relative to control
Excerpt: as §5, §6

[5] = Pharmacokinetics, Pt in rat plasma after intravenous administration; type: in vivo, SD rats
Experimental: The pharmacokinetic profile of complex 3 was performed as compared with cisplatin. […] A non-compartment model was applied to analyze changes of pharmacokinetic behaviors. […] The results could be attributed to the biodistribution of the complex 3 in normal tissues as well as retention in blood circulation.
0.6 ml of blood compounds were collected from orbital cavity at 5 min followed by 0.5, 1, 2, 4, 8, 12 and 24 h after intravenous administration, heparinized and then centrifuged at 4000 rpm for 20 min at 4°C. The supernatant plasma was collected for measurement of Pt content using ICP-MS. The apparent plasma half-life time was calculated using a Phoenix Win Nonlin 6.3 Program (Pharsight Cooperation, St. Louis Missouri, USA).

Herring sperm DNA = assay: DNA platination by EtBr fluorescence; details: 0.01 mg/mL DNA, pH 7.4, 37°C, 24 h
Experimental: The better cytotoxicity of complex 3 owing to the DNA platination could be detected in the presence of EtBr as a probe via fluorescent measurements, because their DNA platination could prevent the formation of EtBr-DNA complex, resulting in its stoichiometric loss of fluorescence.
Herring sperm DNA was dissolved in 10 mM phosphate buffer (pH 7.4) containing 10 mM NaClO4. The DNA concentration was determined by UV-vis spectra at 260 nm with an extinction coefficient of 6600 M^−1. The mixture of DNA with platinum complexes were incubated at 37°C in the dark. The fluorescence was measured in 0.4 M NaCl to avoid the second fixation site of EtBr to DNA. EtBr (0.04 mg/mL) was added to the 0.01 mg/mL DNA solution before the fluorescence measurement. Fluorescence spectra were recorded under following conditions: scan speed 2000 nm min^−1; excitation slit width was 5 nm and emission slit width was 10 nm. The excitation and emission wavelength was 530 nm and 592 nm, respectively.

Structure (SMILES): CC(C)C[NH+]1[C@@H]2CCCC[C@H]2[NH+](CC(C)C)[Pt-2]12[O]C(=O)CC(=O)[O]2 (some centres unmarked) [Complex 3]
- share of intracellular Pt, nucleus (A549 cells [1]): 79%
- share of intracellular Pt, nucleus (NCI-H1299 cells [2]): 72%
- cell cycle phase blocked (A549 cells [3]): G2/M phases of A549 and NCI-H1299 were blocked strikingly
- cell cycle phase blocked (NCI-H1299 cells [4]): G2/M phases of A549 and NCI-H1299 were blocked strikingly
- percentage of cells in the G1 phase (NCI-H1299 cells [4]; 72 h, untreated 18.96%): 60.29%
- levels of the p-Akt protein (p-Akt): 1.02 folds
- amounts of p-mTOR (p-mTOR): 1.41 folds
- t1/2, Pt concentration-time profile in rat plasma ([5]; rat, in vivo, iv, 5 mg/kg): ~ 24.5 h
- DNA platination, change of EtBr fluorescent intensity (Herring sperm DNA): more fluorescent intensity change compared to complex 3a

Structure (SMILES): O=C1[O][Pt]2([NH][C@@H]3CCCC[C@H]3[NH]2)[O]C1=O [Oxaliplatin, oxaliplatin, reference compound]
- share of intracellular Pt, nucleus (A549 cells [1]): 63%
- share of intracellular Pt, nucleus (NCI-H1299 cells [2]): 57%
- cell cycle phase blocked (A549 cells [3]): S phases were blocked
- cell cycle phase blocked (NCI-H1299 cells [4]): S phases were blocked
- levels of the p-Akt protein (p-Akt): 0.95 folds
- amounts of p-mTOR (p-mTOR): 1.15 folds
- t1/2, Pt concentration-time profile in rat plasma ([5]; rats, intravenous, 5 mg/kg oxaliplatin or equivalent dose): ~ 13.1 h
- DNA platination, change of EtBr fluorescent intensity (Herring sperm DNA): a little loss of fluorescent intensity

Reference: PMC5458179, “Oxidative DNA double strand breaks and autophagy in the antitumor effect of sterically hindered platinum(II) complexes in NSCLCs” (Oncotarget, 2017)
